Here are results for 1 compound from PMC5576976 (Translational Oncology, 2017).

The target of the experiment is IMP1 (insulin-like growth factor-2 mRNA-binding protein 1) (Homo sapiens, UniProt Q9NZI8). In words: fluorescence anisotropy/polarization microplate assay.
Sequence of IMP1 (insulin-like growth factor-2 mRNA-binding protein 1) (Q9NZI8 whole entry): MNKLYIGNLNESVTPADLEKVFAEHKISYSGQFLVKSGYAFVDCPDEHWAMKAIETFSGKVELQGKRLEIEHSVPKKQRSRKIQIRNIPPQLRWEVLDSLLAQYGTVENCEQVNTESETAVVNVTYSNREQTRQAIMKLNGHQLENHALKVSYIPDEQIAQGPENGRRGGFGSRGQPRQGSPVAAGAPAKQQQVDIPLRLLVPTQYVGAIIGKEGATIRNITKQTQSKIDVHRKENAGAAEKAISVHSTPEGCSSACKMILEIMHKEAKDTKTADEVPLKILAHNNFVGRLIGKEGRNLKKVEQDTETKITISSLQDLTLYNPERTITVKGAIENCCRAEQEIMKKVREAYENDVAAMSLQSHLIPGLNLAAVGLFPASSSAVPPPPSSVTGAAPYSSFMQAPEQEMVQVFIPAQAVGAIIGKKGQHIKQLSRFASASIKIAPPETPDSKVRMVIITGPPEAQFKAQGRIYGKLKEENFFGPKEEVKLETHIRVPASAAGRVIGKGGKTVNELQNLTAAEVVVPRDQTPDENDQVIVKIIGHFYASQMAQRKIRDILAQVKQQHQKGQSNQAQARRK

In the case of `NC(=O)c1ccccc1N=Cc1ccc(Br)s1` [BTYNB, 2-{[(5-bromo-2-thienyl)methylene]amino}benzamide], the IC50 (in general, the point on the concentration scale where inhibition reaches its midpoint) amounted to 5 µM.
